In ChEMBL document CHEMBL4184249, “Structural development of tetrachlorophthalimides as liver X receptor β (LXRβ)-selective agonists with improved aqueous solubility” (Bioorg Med Chem Lett, 2018):
pEC50: −log10 of the molar value. Active and inactive are the calls of the source. The calls are words filed in the database; no cut-off is given here.

Assays:
[1] = target: T1, Oxysterols receptor LXR-alpha (Mus musculus) (UniProt Q9Z0Y9); assay: Agonist activity at mouse LXRalpha expressed in HEK293 cells co-expressing CMX-beta-galactosidase at 30 uM incubated for 16 hrs by luciferase reporter gene assay; format: cell-based
T1 sequence (whole entry): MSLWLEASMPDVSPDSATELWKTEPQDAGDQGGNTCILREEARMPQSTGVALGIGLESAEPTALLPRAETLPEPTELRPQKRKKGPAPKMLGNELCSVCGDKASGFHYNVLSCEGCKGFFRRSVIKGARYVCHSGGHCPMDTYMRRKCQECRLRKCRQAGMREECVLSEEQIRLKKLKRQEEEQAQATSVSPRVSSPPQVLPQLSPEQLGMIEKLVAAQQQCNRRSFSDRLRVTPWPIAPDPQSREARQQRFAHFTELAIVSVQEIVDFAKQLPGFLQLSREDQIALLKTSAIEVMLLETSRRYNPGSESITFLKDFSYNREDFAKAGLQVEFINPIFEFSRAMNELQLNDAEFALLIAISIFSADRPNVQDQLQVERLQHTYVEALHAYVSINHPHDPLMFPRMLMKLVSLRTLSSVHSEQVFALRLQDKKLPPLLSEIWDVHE

[2] = target: T2, Oxysterols receptor LXR-beta (Mus musculus, UniProt Q60644); assay: Agonist activity at mouse LXRbeta expressed in HEK293 cells co-expressing CMX-beta-galactosidase incubated for 16 hrs by luciferase reporter gene assay; format: cell-based
T2 sequence (Q60644 whole entry): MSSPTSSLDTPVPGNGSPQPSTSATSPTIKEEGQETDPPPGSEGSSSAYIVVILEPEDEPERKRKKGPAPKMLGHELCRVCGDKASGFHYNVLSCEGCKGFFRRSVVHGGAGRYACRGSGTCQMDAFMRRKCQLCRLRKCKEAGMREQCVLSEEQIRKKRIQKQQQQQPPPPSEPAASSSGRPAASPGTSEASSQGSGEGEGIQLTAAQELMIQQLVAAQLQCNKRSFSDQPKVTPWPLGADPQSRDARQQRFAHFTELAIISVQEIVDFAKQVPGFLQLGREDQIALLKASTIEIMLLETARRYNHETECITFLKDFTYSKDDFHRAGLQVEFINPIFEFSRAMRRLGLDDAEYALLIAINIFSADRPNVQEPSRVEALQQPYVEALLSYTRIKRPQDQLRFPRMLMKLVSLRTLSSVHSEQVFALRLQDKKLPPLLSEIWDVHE

Activity [1]: inactive | pEC50 [2]: 6.10
SMILES: O=C1c2c(Cl)c(Cl)c(Cl)c(Cl)c2C(=O)N1c1ccccc1/C=C/c1cccs1
